The values below come from ChEMBL document CHEMBL4888484, “Replenishing the malaria drug discovery pipeline: Screening and hit evaluation of the MMV Hit Generation Library 1 (HGL1) against asexual blood stage Plasmodium falciparum ,using a nano luciferase reporter read-out” (2022).

SMILES strings stand for the structures.

The test system of data set [1] is Plasmodium falciparum. The data set is described as follows: Hit confirmation in dose-response curve in NF54 nanoGlo assay, at 72h. It counts as functional, organism-based, Erythrocyte. Conditions: Plasmodium falciparum, NF54, Erythrocyte, 72 h. On the set-up: timepoint 72 hour.
Data set [2] deals with Plasmodium falciparum. In words: Hit confirmation in dose-response curve in NF54 pLDH assay, at 72h. It counts as functional, organism-based. Also noted: timepoint 72 hour. The settings on record: NF54, Erythrocyte.
The test system of data set [3] is Plasmodium falciparum. The data set is described as follows: Hit confirmation in dose-response curve in Dd2 pLDH assay, at 72h. It counts as functional, organism-based. On the set-up: timepoint 72 hour. The settings on record: Dd2, Erythrocyte.
Data set [4] has as its system Plasmodium falciparum. The data set is described as follows: Hit confirmation in dose-response curve in NF54 nanoGlo assay, at 12h. Format: functional, organism-based, Erythrocyte. On the set-up: timepoint 12 hour. The settings on record: Plasmodium falciparum, NF54, Erythrocyte, 12 h.
Data set [5] can be described thus: Hit confirmation in dose-response curve in HepG2 cytotoxicity assay, at 72h. Format: toxicity, cell-based. Also noted: timepoint 72 hour. Conditions: human, HepG2 cells.
For data set [6], the system named is Plasmodium falciparum. The data set is described as follows: Re-testing in dose-response curve in 3D7 pLDH assay, at 72h. It counts as functional, organism-based. Also noted: timepoint 72 hour. The settings on record: 3D7, Erythrocyte.
Data set [7] can be described thus: Re-testing in dose-response curve in HepG2 cytotoxicity assay, at 72h. On the set-up: timepoint 72 hour. Format: toxicity, cell-based. The settings on record: human, HepG2 cells.

Usually IC50 stands for the concentration that gives 50% inhibition. Low readings indicate greater potency in that assay, high ones weaker potency in that assay. For the compound `COc1ccc([C@@H]2C=C(c3ccc(Cl)cc3)N=C3NC(NC(=O)c4ccccc4OC)=NN32)cc1`, the IC50 in the data set on Plasmodium falciparum [1] stood at 759 nM; in the data set on Plasmodium falciparum [2] it was 2950 nM; with Plasmodium falciparum [3] it was 1230 nM; in the data set with Plasmodium falciparum [4], 1100 nM; in the data set on Plasmodium falciparum [6] it was 6520 nM. Further, the results for the IC50 at 72 h in data set [5] and in data set [7] were more than 10000 nM and more than 25000 nM, respectively.
Take `COc1ccc(CC(=O)Nc2cc(C)n(-c3cccc(Cl)c3)n2)cc1`: the IC50 with Plasmodium falciparum [1] was found to be 1550 nM; in the data set with Plasmodium falciparum [2], 2820 nM; with Plasmodium falciparum [3] it was 1550 nM; with Plasmodium falciparum [4] it was 6460 nM; with Plasmodium falciparum [6] it was 751 nM. For the same compound, the IC50 at 72 h in data set [5] is more than 10000 nM; in data set [7], more than 25000 nM.
`Cc1cnccc1NCCNC1CCN(c2ccc3c(c2)CCC3)CC1`: the IC50 in the data set with Plasmodium falciparum [1] was found to be 4570 nM; in the data set on Plasmodium falciparum [2] it was 1020 nM; with Plasmodium falciparum [3] it was 646 nM; in the data set on Plasmodium falciparum [4], 7080 nM; in the data set on Plasmodium falciparum [6] it was 321 nM. For the same compound, the half-inhibitory concentration (IC50) at 72 h amounted to 8130 nM in data set [5] and 5420 nM in data set [7].
As for `C[C@H]1CCCN(c2nc(-c3ccccn3)nc3ccccc23)C1`, the IC50 in the data set with Plasmodium falciparum [1] amounted to 468 nM; in the data set with Plasmodium falciparum [2], 1410 nM; in the data set on Plasmodium falciparum [3], 1450 nM; with Plasmodium falciparum [4], 1260 nM; with Plasmodium falciparum [6], 1710 nM. In addition, the IC50 at 72 h was more than 10000 nM in data set [5] and 1760 nM in data set [7].
For the compound `Oc1ccccc1CCN[C@H]1CCc2ccc(F)cc21`, the IC50 is 195 nM with Plasmodium falciparum [1]; 309 nM in the data set with Plasmodium falciparum [2]; 269 nM with Plasmodium falciparum [3]; 257 nM in the data set on Plasmodium falciparum [4]; 429 nM in the data set with Plasmodium falciparum [6]. In addition, the IC50 at 72 h in data set [5] was more than 10000 nM; in data set [7], more than 25000 nM.
As for `COc1ccnc(CN2CCC[C@H](c3nc(-c4ccccc4)c[nH]3)C2)c1OC`, the IC50 with Plasmodium falciparum [1] stood at 1450 nM; in the data set with Plasmodium falciparum [2] it was 1780 nM; in the data set with Plasmodium falciparum [3], 1700 nM; in the data set on Plasmodium falciparum [4], 4900 nM; in the data set on Plasmodium falciparum [6] it was 15600 nM. For the same compound, the IC50 at 72 h in data set [5] was more than 10000 nM; in data set [7], 10200 nM.
Turning to `CCOC(=O)c1c(CN2CCCC2)n(C)c2cc(-c3cccnc3)c(O)c(Cn3ccnc3)c12`, the IC50 with Plasmodium falciparum [1] was 145 nM; in the data set on Plasmodium falciparum [2], 174 nM; in the data set on Plasmodium falciparum [3] it was 132 nM; in the data set on Plasmodium falciparum [4], more than 10000 nM; with Plasmodium falciparum [6] it was 3650 nM. Also, the IC50 at 72 h is more than 10000 nM in data set [5] and more than 25000 nM in data set [7].
Take `CCc1nc2c(C(=O)N3CCOc4c(C)cc(C)cc43)ccnc2[nH]1`: the IC50 was 1410 nM in the data set with Plasmodium falciparum [1]; 4270 nM with Plasmodium falciparum [2]; 1290 nM in the data set on Plasmodium falciparum [3]; more than 10000 nM in the data set with Plasmodium falciparum [4]; 234 nM in the data set on Plasmodium falciparum [6]. Besides, the values for the IC50 at 72 h in data set [5] and in data set [7] were more than 10000 nM and more than 25000 nM, respectively.
With `CC(=O)N(C1CCN(Cc2ccccc2)CC1)C1(C(=O)Nc2ccc3[nH]ccc3c2)CCN(C)CC1`, the IC50 with Plasmodium falciparum [1] amounted to 1660 nM; in the data set on Plasmodium falciparum [2], 1260 nM; with Plasmodium falciparum [3], 1230 nM; in the data set on Plasmodium falciparum [4], 3980 nM; in the data set with Plasmodium falciparum [6], 1230 nM. For the same compound, the figures for the IC50 at 72 h in data set [5] and in data set [7] were more than 10000 nM and more than 25000 nM, respectively.
`CC(C)CC[C@@H](CCNCCN(C)C)c1ccc(Cl)cc1`: the IC50 in the data set on Plasmodium falciparum [1] is 562 nM; in the data set on Plasmodium falciparum [2], 1020 nM; in the data set with Plasmodium falciparum [3], 977 nM; in the data set with Plasmodium falciparum [4], 891 nM; with Plasmodium falciparum [6] it was 3230 nM. Also, the values for the IC50 at 72 h in data set [5] and in data set [7] were more than 10000 nM and 14900 nM, respectively.
For the compound `COc1cccc(-c2cc(O)cc(CC[C@H]3CCCCN3)c2)n1`, the IC50 with Plasmodium falciparum [1] was 1230 nM; in the data set on Plasmodium falciparum [2] it was 1820 nM; with Plasmodium falciparum [3], 1550 nM; with Plasmodium falciparum [4], 1730 nM; in the data set with Plasmodium falciparum [6], 1280 nM. Further, the IC50 at 72 h was more than 10000 nM in data set [5] and more than 25000 nM in data set [7].
In the case of `COc1ccccc1C(=O)NC1=NN2C(=NC(c3ccc(Cl)cc3)=C[C@H]2c2ccc(Cl)cc2)N1`, the IC50 in the data set on Plasmodium falciparum [1] was determined as 630 nM; with Plasmodium falciparum [2] it was 2750 nM; with Plasmodium falciparum [3], 1100 nM; in the data set with Plasmodium falciparum [4] it was 1070 nM; in the data set with Plasmodium falciparum [6], 4930 nM. Further, the results for the IC50 at 72 h in data set [5] and in data set [7] were more than 10000 nM and more than 25000 nM, respectively.
As to `Clc1cccc(CNCCCNc2ccncc2)c1Cl`, the half-maximal inhibitory concentration (IC50) in the data set with Plasmodium falciparum [1] came to 2000 nM; with Plasmodium falciparum [2] it was 2000 nM; in the data set on Plasmodium falciparum [3] it was 1550 nM; in the data set on Plasmodium falciparum [4], 7590 nM; in the data set on Plasmodium falciparum [6] it was 1150 nM. Moreover, the half-maximal inhibitory concentration (IC50) at 72 h is more than 10000 nM in data set [5] and 16300 nM in data set [7].
On to `CCn1cnc2c(N3CCC[C@H](c4ccncc4)C3)ncnc21`, for which the IC50 with Plasmodium falciparum [1] is 1000 nM; in the data set on Plasmodium falciparum [2] it was 794 nM; in the data set with Plasmodium falciparum [3], 708 nM; in the data set on Plasmodium falciparum [4], 8910 nM; with Plasmodium falciparum [6] it was 663 nM. In addition, the values for the IC50 at 72 h in data set [5] and in data set [7] were more than 10000 nM and more than 25000 nM, respectively.
As to `Nc1c(-c2nc3ccccc3[nH]2)c2nc3ccccc3nc2n1Cc1ccccc1F`, the IC50 in the data set with Plasmodium falciparum [1] is 251 nM; with Plasmodium falciparum [2], 1100 nM; in the data set with Plasmodium falciparum [3] it was 955 nM; with Plasmodium falciparum [4] it was more than 10000 nM; in the data set with Plasmodium falciparum [6], 2110 nM. For the same compound, the half-inhibitory concentration (IC50) at 72 h in data set [5] was more than 10000 nM; in data set [7], 24700 nM.
With `O=S(=O)(Nc1ccc(O)c2cccnc12)N1CCCC1`, the concentration for half-maximal inhibition (IC50) with Plasmodium falciparum [1] is 2690 nM; in the data set with Plasmodium falciparum [2], 1320 nM; in the data set with Plasmodium falciparum [3] it was 1450 nM; in the data set on Plasmodium falciparum [4], 10000 nM; with Plasmodium falciparum [6] it was 10500 nM. Moreover, the IC50 at 72 h in data set [5] was more than 10000 nM; in data set [7] it was 12500 nM.
On to `Clc1ccc(COc2ccc(Cl)cc2CNCCCn2ccnc2)c(Cl)c1`, for which the IC50 in the data set with Plasmodium falciparum [1] came out at 1410 nM; in the data set with Plasmodium falciparum [2], 1260 nM; with Plasmodium falciparum [3], 1380 nM; in the data set on Plasmodium falciparum [4], 3020 nM; in the data set on Plasmodium falciparum [6] it was 1010 nM. Besides, the IC50 at 72 h is more than 10000 nM in data set [5] and 6110 nM in data set [7].
Consider `CN(C)Cc1ccc(NC(=O)c2cc(F)cc3c(=O)c4cc(F)ccc4[nH]c23)cc1`, for which the IC50 in the data set with Plasmodium falciparum [1] was 525 nM; with Plasmodium falciparum [2], 1200 nM; in the data set with Plasmodium falciparum [3], 708 nM; in the data set with Plasmodium falciparum [4], more than 10000 nM; in the data set with Plasmodium falciparum [6] it was approximately 377 nM. In addition, the half-maximal inhibitory concentration (IC50) at 72 h is more than 10000 nM in data set [5] and 2860 nM in data set [7].
With `O=C(Nc1cnc2ccccc2c1)c1ccccc1C(=O)c1ccc(F)cc1`, the IC50 in the data set with Plasmodium falciparum [1] came to 490 nM; with Plasmodium falciparum [2], 2570 nM; in the data set with Plasmodium falciparum [3], 955 nM; in the data set on Plasmodium falciparum [4], 631 nM; with Plasmodium falciparum [6], 1390 nM. The 50% inhibitory concentration (IC50) at 72 h is more than 10000 nM in data set [5] and more than 25000 nM in data set [7].
As for `Cc1cc(NC(=O)C(=O)NC2CC(C)CC(C)(C)C2)n(-c2nc3c(c(=O)[nH]2)CCC3)n1` (configuration not stated), the IC50 in the data set with Plasmodium falciparum [1] is 1150 nM; in the data set with Plasmodium falciparum [2], 2090 nM; in the data set with Plasmodium falciparum [3], 1780 nM; in the data set on Plasmodium falciparum [4], more than 10000 nM; in the data set with Plasmodium falciparum [6], 392 nM. Besides, the values for the IC50 at 72 h in data set [5] and in data set [7] were more than 10000 nM and 118 nM, respectively.
As for `CCc1ccc(C(=O)NCCCC2CCCC2O)cc1S(=O)(=O)N1CCOCC1` (configuration not stated), the IC50 with Plasmodium falciparum [1] was 1910 nM; in the data set on Plasmodium falciparum [2], 4370 nM; in the data set on Plasmodium falciparum [3] it was 977 nM; with Plasmodium falciparum [4] it was more than 10000 nM; with Plasmodium falciparum [6], 2490 nM. Also, the results for the IC50 at 72 h in data set [5] and in data set [7] were more than 10000 nM and more than 25000 nM, respectively.
